According to PubChem BioAssay (NCI):
Values joined by “and” are separate entries in the source; they are usually repeats but may differ in a detail not shown here. Identical values can stand only once.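 In this assay, cells in 96-well plates receive the compound at five concentrations for 48 hours. Endpoints are linearly interpolated between the surrounding concentrations. GI50 is the concentration that inhibits growth by half. Definition used: TGI = concentration required for complete inhibition of growth.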

What was measured:
Assay in all cases: NCI-60 cell line screen, 48 h
786-0 renal = system: 786-0 renal
A498 renal = system: A498 renal
HCT-116 colon = system: HCT-116 colon
MALME-3M melanoma = system: MALME-3M melanoma
SK-OV-3 ovarian = system: SK-OV-3 ovarian
U251 CNS = system: U251 CNS
UACC-62 melanoma = system: UACC-62 melanoma
CAKI-1 renal = system: CAKI-1 renal
DU-145 prostate = system: DU-145 prostate
MDA-MB-231 breast = system: MDA-MB-231 breast

Row | SMILES | TGI (786-0 renal) | TGI (A498 renal) | TGI (HCT-116 colon) | TGI (MALME-3M melanoma) | TGI (SK-OV-3 ovarian) | TGI (U251 CNS) | TGI (UACC-62 melanoma) | TGI (CAKI-1 renal) | GI50 (786-0 renal) | GI50 (A498 renal) | GI50 (CAKI-1 renal) | GI50 (DU-145 prostate) | TGI (DU-145 prostate) | GI50 (SK-OV-3 ovarian) | GI50 (UACC-62 melanoma) | GI50 (HCT-116 colon) | GI50 (MALME-3M melanoma) | GI50 (U251 CNS) | GI50 (MDA-MB-231 breast) | TGI (MDA-MB-231 breast)
1 | CC(C)N1C(C)[C@@H](c2ccccc2)O[P@@]1(=O)CC1=CCCCC1 (stereo partly specified) | > 100 µM | > 100 µM | > 100 µM | > 100 µM | > 100 µM | > 100 µM | > 100 µM |  |  |  |  |  |  |  |  |  |  |  |  | 
2 | COC(=O)C(=O)C(C(C)=O)C(=O)NCc1ccccc1 (stereo unspecified) | > 100 µM | > 100 µM | > 100 µM | > 100 µM |  | > 100 µM | > 100 µM | > 100 µM |  |  |  |  |  |  |  |  |  |  |  | 
3 | COc1cc([C@@H]2OC(=O)C3C2C(=O)O[C@H]3c2ccc(O)c(OC)c2)ccc1O (stereo partly specified) | > 100 µM | > 100 µM | > 100 µM | > 100 µM | > 100 µM | > 100 µM | > 100 µM | > 100 µM |  |  |  |  |  |  |  |  |  |  |  | 
4 | COc1ccc2c(CCCc3ccc(Cl)cc3Cl)c3[n+](cc2c1OC)CCc1cc2c(cc1-3)OCO2 | 2.74 µM | 9 µM |  |  | 2.2 µM |  | 1.38 µM | 23.7 µM | 1.27 µM | 1.76 µM | 5.1 µM | 0.639 µM | 1.96 µM | 0.873 µM | 0.284 µM |  |  |  |  | 
5 | CC(=O)[CH-]C(=O)c1ccccc1.CC(=O)[CH-]C(=O)c1ccccc1.CC[C@H](/C=C/C(C)[C@H]1CCC2[C@@H]3CC=C4C[C@@H]([O-])CC[C@]4(C)C3CC[C@@]21C)C(C)C.CC[C@H](/C=C/C(C)[C@H]1CCC2[C@@H]3CC=C4C[C@@H]([O-])CC[C@]4(C)C3CC[C@@]21C)C(C)C.Cl.[Ti+4] (stereo partly specified) | > 25 µM | > 25 µM | > 25 µM | > 25 µM | > 25 µM | > 25 µM | > 25 µM | > 25 µM | 23 µM | > 25 µM | > 25 µM |  |  | > 25 µM | > 25 µM | > 25 µM | 10.5 µM | > 25 µM |  | 
6 | O=C(NCc1ccco1)C1CCN(S(=O)(=O)c2ccc(Cl)cc2)CC1 | > 100 µM |  | > 100 µM | > 100 µM | > 100 µM | > 100 µM | > 100 µM | > 100 µM | > 100 µM |  | > 100 µM | > 100 µM | > 100 µM | > 100 µM | 80.5 µM | 59.8 µM | > 100 µM | > 100 µM | > 100 µM | > 100 µM
7 | CCOC(=O)C(=O)Nc1c(C)cccc1C(C)(C)C | > 100 µM |  | > 100 µM | > 100 µM | > 100 µM | > 100 µM | > 100 µM | > 100 µM |  |  |  |  |  |  |  |  |  |  |  | 
8 | NC(=O)C(=O)C1C(=O)N(c2ccccc2)N=C1N (stereo unspecified) | > 100 µM |  | > 100 µM | > 100 µM | > 100 µM |  | > 100 µM | > 100 µM |  |  |  |  |  |  |  |  |  |  |  | 
9 | CN(CCCN1C(=O)c2cccc3cc([N+](=O)[O-])cc(c23)C1=O)CCN(C)CCCN1C(=O)c2cccc3cc([N+](=O)[O-])cc(c23)C1=O | > 39.3 µM | > 39.3 µM | > 39.3 µM | > 39.3 µM | > 39.3 µM | > 39.3 µM | > 39.3 µM | > 39.3 µM |  |  |  |  |  |  |  |  |  |  |  | 
10 | CCCCCCCCC(C)CCCCCCCCC(=O)OCC(COP(=O)([O-])OCC[N+](C)(C)C)OC(=O)CCCCCCCCC(C)CCCCCCCC (stereo unspecified) | > 100 µM | > 100 µM | > 100 µM | > 100 µM | > 100 µM | > 100 µM | > 100 µM | > 100 µM |  |  |  |  |  |  |  |  |  |  |  | 
11 | CN(C)C(=S)/N=c1\ssc(=S)n1Cc1ccco1 | > 46.4 µM | > 74.2 µM | > 72 µM | > 100 µM | > 100 µM | > 47.4 µM | > 59.3 µM | > 100 µM |  |  |  |  |  |  |  |  |  |  |  | 84.2 µM
12 | Cc1ccc(C2[C@H]3C(=O)N(c4ccc(Cc5ccc(N6C(=O)[C@@H]7ON(c8ccccc8)C(c8ccc(C)cc8)[C@@H]7C6=O)cc5)cc4)C(=O)[C@H]3ON2c2ccccc2)cc1 (stereo partly specified) | > 100 µM | > 100 µM |  | > 100 µM | > 100 µM | > 100 µM | > 100 µM | > 100 µM |  |  |  |  |  |  |  |  |  |  |  | 
13 | CC(=O)CCc1ccc(Oc2c3c(nc4ccccc24)OCC3)cc1 | > 100 µM | 50.1 µM | > 100 µM |  | > 100 µM | > 100 µM | > 100 µM |  | > 100 µM | 9.22 µM |  | > 100 µM | > 100 µM | 62.1 µM | 34.1 µM | > 100 µM |  | 41.7 µM | 52 µM | > 100 µM
14 | O=C1c2ccn(CCCNC(CO)(CO)CO)c2C(=O)c2c1c(O)c1ccccc1c2O | 26.9 µM |  | 13.9 µM | 74.3 µM | 96.6 µM | 36.6 µM | > 61.3 µM | 47.1 µM | 7.94 µM |  | 16.4 µM | 11.5 µM | 25 µM | 30.8 µM | 24.6 µM | 1.9 µM | 22.7 µM | 15.2 µM | 8.39 µM | 25.2 µM
15 | CCCCCN(CCCCC)C(=O)[C@H](CCC(=O)O)NC(=O)c1cc2ccccc2[nH]1 | > 100 µM | > 100 µM | 92.5 µM | > 100 µM | > 100 µM | > 100 µM | > 100 µM | > 100 µM |  |  |  |  |  |  |  |  |  |  |  | 
16 | N#CC(C(=N/O)/C(=N\O)C(C#N)c1ccccc1)c1ccccc1 (stereo unspecified) | > 100 µM | > 100 µM | > 100 µM | > 100 µM | > 100 µM | > 100 µM | > 100 µM |  |  |  |  |  |  |  |  |  |  |  |  | 
17 | CCn1cc(C(=O)N/N=C/c2cccs2)c(=O)c2cc(F)c(N3CCNC(C)C3)c(F)c21 (stereo unspecified) | 3.38 µM | 21.1 µM |  |  | 3.38 µM | 3.06 µM | 2.96 µM | 3.03 µM | 1.8 µM | 3.64 µM | 1.66 µM | 1.67 µM | 3.03 µM | 1.79 µM | 1.61 µM |  |  | 1.67 µM | 1.52 µM | 2.85 µM
18 | O=C1C(Cl)=C(Cl)C(=O)N1c1cccc(C(F)(F)F)c1 | > 100 µM | > 100 µM | > 100 µM | > 100 µM | > 100 µM | > 100 µM | > 100 µM | 98 µM |  |  |  |  |  |  |  |  |  |  |  | 
19 | O=[N+]([O-])c1ccc(C2SCc3nc4ccccc4n32)cc1 (stereo unspecified) | > 100 µM | > 100 µM |  | > 100 µM | > 100 µM | > 100 µM | > 100 µM | > 100 µM |  |  |  |  |  |  |  |  |  |  |  | 
20 | CCC[CH2][Sn]([CH2]CCC)([O]C(=O)c1cc(F)ccc1F)[O]C(=O)c1cc(F)ccc1F | 2.37 µM | 2.57 µM | 2.5 µM | 2.1 µM | 5.64 µM | 2.11 µM | 2.65 µM | 2.27 µM | 1.15 µM | 1.25 µM | 1.06 µM |  |  | 2.79 µM | 1.36 µM | 1.25 µM | 0.703 µM | 0.888 µM |  | 
21 | COc1cc2c3c(n([C@@H]4CCOC4)c(=O)c2cc1OC)-c1cc2c(cc1C3=O)OCO2 | 0.0183 µM |  |  |  |  |  |  |  | < 0.01 µM |  |  | < 0.01 µM | > 100 µM |  |  |  |  |  |  | 
22 | Cc1ccc(C)c(NC(=O)C(=O)C2C(=O)N(c3ccccc3)N=C2N)c1 (stereo unspecified) | > 100 µM | > 100 µM | > 100 µM | > 100 µM |  | > 100 µM | > 100 µM | > 100 µM |  |  |  |  |  |  |  |  |  |  |  | 
23 | O=C1NC2C3CC(OCc4ccccc4)(OCc4ccccc4)C2OC3O1 (stereo unspecified) | > 50 µM | > 50 µM | > 50 µM | > 50 µM | > 50 µM |  | > 50 µM | > 50 µM |  |  |  |  |  |  |  |  |  |  |  | 
24 | O=C(O)/C(Cl)=C(Cl)/C=N/NC(=O)c1cc2ccccc2cc1O | > 100 µM | > 100 µM | > 100 µM | > 100 µM | > 100 µM | > 100 µM | 14.6 µM | > 100 µM |  |  |  |  |  |  |  |  |  |  |  | 
25 | Cc1cc(Cl)ccc1N=C1NC(=O)C(CC(=O)Nc2cccc(C)c2C)S1 (stereo unspecified) | 47.9 µM | 50.5 µM |  | 65.1 µM | 55.9 µM | 74.5 µM | 71.3 µM | 54.5 µM |  |  |  |  |  |  |  |  |  |  |  | 
26 | COC(=O)c1ccc(C(=O)OC)c2nc3cc(Cl)ccc3nc12 | > 100 µM | > 100 µM | > 100 µM | > 100 µM | > 100 µM | > 100 µM | > 100 µM | > 100 µM |  |  |  |  |  |  |  |  |  |  |  | 
27 | COc1cc(C2c3cc4c(cc3[C@@H](Nc3ccc([N+](=O)[O-])cc3)C3COC(=O)[C@H]23)OCO4)cc(OC)c1O (stereo partly specified) | 3.35 µM | 4.8 µM | 14.2 µM | 10.5 µM | 10.1 µM | 7.69 µM | 8.31 µM | 0.941 µM and 5.06 µM | 0.377 µM | 0.536 µM | 0.154 µM |  | 37.9 µM | 0.798 µM | 0.547 µM |  | 0.943 µM | 0.418 µM |  | 
28 | O=c1cc(-c2ccccc2)oc2cc(OCCCCCN3CCOCC3)cc(O)c12 | > 100 µM | 82.9 µM | 64.8 µM |  | 44.1 µM | 45.5 µM | > 100 µM |  | 30 µM | 33.7 µM |  | > 100 µM | > 100 µM | 16.4 µM | 95.7 µM | 19.2 µM |  | 18.6 µM | 15.6 µM | 63.7 µM
29 | O=C(COC(=O)c1cccc2c(=O)c3ccccc3[nH]c12)Nc1ccc(Cl)cc1 | > 100 µM | 60 µM | > 100 µM | > 100 µM | > 100 µM | > 100 µM | > 100 µM | > 100 µM |  |  |  |  |  |  |  |  |  |  |  | 
30 | CCOC(=O)/C(C#N)=C\Sc1ccccc1 | 29.1 µM |  | 59.8 µM |  | 74.7 µM | 29 µM | 42.3 µM | 65.9 µM |  |  |  |  |  |  |  |  |  |  |  | 
